The test concerns the target T1, Dimer of Gag-Pol polyprotein [489-587] (Human immunodeficiency virus 1, UniProt P12497).
T1 construct: 489-587
Nature of the test: Protease Inhibition Assay. Particulars: pH 5.5; 30 °C. The procedure:
Sensitivity of HIV-1 protease activity to protease inhibitors was determined by a peptide substrate cleavage assay. Protease products were analyzed on a reverse-phase high-pressure liquid chromatograph.

Consider 13 compounds from BindingDB's records for doi:10.1021/jm00059a019 (Merck Research Laboratories, 1993).

`CC(C)(C)NC(=O)C1C[C@@H]2CCCC[C@@H]2CN1C[C@@H](O)[C@H](Cc1ccccc1)NC(=O)OCCS(C)(=O)=O` (stereo partly drawn) [2-methanesulfonylethyl N-[(2S,3R)-4-[(4aS,8aS)-3-(tert-butylcarbamoyl)-decahydroisoquinolin-2-yl]-3-hydroxy-1-phenylbutan-2-yl]carbamate] displayed a half-inhibitory concentration (IC50) of 1030 nM.
Consider `CC(C)[C@@H]1[C@H](OC(=O)N[C@@H](Cc2ccccc2)[C@H](O)CN2C[C@H]3CCCC[C@H]3CC2C(=O)NC(C)(C)C)CCS1(=O)=O` (stereo partly drawn) [(2R,3R)-1,1-dioxo-2-(propan-2-yl)--thiolan-3-yl N-[(2S,3R)-4-[(4aS,8aS)-3-(tert-butylcarbamoyl)-decahydroisoquinolin-2-yl]-3-hydroxy-1-phenylbutan-2-yl]carbamate], for which the IC50 was 3 nM.
As for `CC(C)C[C@@H]1[C@H](OC(=O)N[C@@H](Cc2ccccc2)[C@H](O)CN2C[C@H]3CCCC[C@H]3CC2C(=O)NC(C)(C)C)CCS1(=O)=O` (stereo partly drawn) [(2R,3R)-2-(2-methylpropyl)-1,1-dioxo--thiolan-3-yl N-[(2S,3R)-4-[(4aS,8aS)-3-(tert-butylcarbamoyl)-decahydroisoquinolin-2-yl]-3-hydroxy-1-phenylbutan-2-yl]carbamate], the half-maximal inhibitory concentration (IC50) was 30 nM.
As for `CC[C@@H]1[C@H](OC(=O)N[C@@H](Cc2ccccc2)[C@H](O)CN2C[C@H]3CCCC[C@H]3CC2C(=O)NC(C)(C)C)CCS1(=O)=O` (stereo partly drawn) [(2R,3R)-2-ethyl-1,1-dioxo--thiolan-3-yl N-[(2S,3R)-4-[(4aS,8aS)-3-(tert-butylcarbamoyl)-decahydroisoquinolin-2-yl]-3-hydroxy-1-phenylbutan-2-yl]carbamate], half-maximal inhibition (IC50) was put at 13.1 nM.
Next, `C[C@H]1OCC[C@H]1OC(=O)N[C@@H](Cc1ccccc1)[C@H](O)CN1C[C@H]2CCCC[C@H]2CC1C(=O)NC(C)(C)C` (stereo partly drawn) [(2R,3R)-2-methyloxolan-3-yl N-[(2S,3R)-4-[(4aS,8aS)-3-(tert-butylcarbamoyl)-decahydroisoquinolin-2-yl]-3-hydroxy-1-phenylbutan-2-yl]carbamate]: 169 nM.
As for `CC(C)C[C@H]1[C@@H](OC(=O)N[C@@H](Cc2ccccc2)[C@H](O)CN2C[C@H]3CCCC[C@H]3CC2C(=O)NC(C)(C)C)CCS1(=O)=O` (stereo partly drawn) [(2S,3S)-2-(2-methylpropyl)-1,1-dioxo--thiolan-3-yl N-[(2S,3R)-4-[(4aS,8aS)-3-(tert-butylcarbamoyl)-decahydroisoquinolin-2-yl]-3-hydroxy-1-phenylbutan-2-yl]carbamate], inhibition was half-maximal at 12 nM (IC50).
Compound `CC[C@H]1[C@@H](OC(=O)N[C@@H](Cc2ccccc2)[C@H](O)CN2C[C@H]3CCCC[C@H]3CC2C(=O)NC(C)(C)C)CCS1(=O)=O` (stereo partly drawn) [(2S,3S)-2-ethyl-1,1-dioxo--thiolan-3-yl N-[(2S,3R)-4-[(4aS,8aS)-3-(tert-butylcarbamoyl)-decahydroisoquinolin-2-yl]-3-hydroxy-1-phenylbutan-2-yl]carbamate] came in with an IC50 of 5.4 nM.
For the compound `C[C@H]1[C@@H](OC(=O)N[C@@H](Cc2ccccc2)[C@H](O)CN2C[C@H]3CCCC[C@H]3CC2C(=O)NC(C)(C)C)CCS1(=O)=O` (stereo partly drawn) [(2S,3S)-2-methyl-1,1-dioxo--thiolan-3-yl N-[(2S,3R)-4-[(4aS,8aS)-3-(tert-butylcarbamoyl)-decahydroisoquinolin-2-yl]-3-hydroxy-1-phenylbutan-2-yl]carbamate], inhibition was half-maximal at 11.4 nM (IC50).
As to `C[C@@H]1OCC[C@@H]1OC(=O)N[C@@H](Cc1ccccc1)[C@H](O)CN1C[C@H]2CCCC[C@H]2CC1C(=O)NC(C)(C)C` (stereo partly drawn) [(2S,3S)-2-methyloxolan-3-yl N-[(2S,3R)-4-[(4aS,8aS)-3-(tert-butylcarbamoyl)-decahydroisoquinolin-2-yl]-3-hydroxy-1-phenylbutan-2-yl]carbamate], the midpoint of inhibition, the IC50, lay at 52.4 nM.
`CC(C)(C)NC(=O)C1C[C@@H]2CCCC[C@@H]2CN1C[C@@H](O)[C@H](Cc1ccccc1)NC(=O)O[C@@H]1CCS(=O)(=O)C1` (stereo partly drawn) [(3R)-1,1-dioxo--thiolan-3-yl N-[(2S,3R)-4-[(4aS,8aS)-3-(tert-butylcarbamoyl)-decahydroisoquinolin-2-yl]-3-hydroxy-1-phenylbutan-2-yl]carbamate] came in with an IC50 of 140 nM.
Turning to `CC(C)(C)NC(=O)C1C[C@@H]2CCCC[C@@H]2CN1C[C@@H](O)[C@H](Cc1ccccc1)NC(=O)O[C@H]1CCS(=O)(=O)C1` (stereo partly drawn) [(3S)-1,1-dioxo--thiolan-3-yl N-[(2S,3R)-4-[(4aS,8aS)-3-(tert-butylcarbamoyl)-decahydroisoquinolin-2-yl]-3-hydroxy-1-phenylbutan-2-yl]carbamate], the IC50 worked out at 75 nM.
Next, `CC(C)[C@H]1[C@@H](OC(=O)N[C@@H](Cc2ccccc2)[C@H](O)CN2C[C@H]3CCCC[C@H]3CC2C(=O)NC(C)(C)C)CCS1(=O)=O` (stereo partly drawn) [hydroxyethylene isostere]: 11 nM; `C[C@@H]1[C@H](OC(=O)N[C@@H](Cc2ccccc2)[C@H](O)CN2C[C@H]3CCCC[C@H]3CC2C(=O)NC(C)(C)C)CCS1(=O)=O` (stereo partly drawn) [hydroxyethylene isostere]: 22.3 nM.

What is called IC50 is the concentration that inhibits the measured activity by half.
